Data published in patent US12643884B2, “1-(2-(4-cyclopropyl-1H-1,2,3-triazol-1-yl)acetyl)-4-hydroxypyrrolidine-2-carboxa|mide derivatives as VHL inhibitors for the treatment of anemia” (Genentech, Inc., priority 2020, dated 2026).

Tests used:
[1] = target: T1, NanoLuc VHL fusion protein stably expressed in HEK 293 cells (Homo sapiens, UniProt P40337); test: VHL HEK-293 BRET Assay (VHL NanoBRET Target Engagement Assay); assay type: cell-based; conditions: for IC50: HEK293 cells, nanoBRET, geometric mean where more than one measurement, read-out: VHL binding in cells (HEK293 nanoBRET); for Ratio cell permeability shift: ratio of nanoBRET in cells to nanoBRET +Digitonin
T1 construct: expressed in transfected cells
T1 sequence (P40337 whole entry, the tested form may be a part): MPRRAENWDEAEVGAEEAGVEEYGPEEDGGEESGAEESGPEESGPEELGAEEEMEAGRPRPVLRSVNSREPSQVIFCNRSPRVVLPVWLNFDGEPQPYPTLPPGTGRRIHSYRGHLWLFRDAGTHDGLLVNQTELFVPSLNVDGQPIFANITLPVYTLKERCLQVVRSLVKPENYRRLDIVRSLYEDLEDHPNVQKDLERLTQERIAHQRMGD
T1 sequence (Q15370 whole entry partner, the tested form may be a part): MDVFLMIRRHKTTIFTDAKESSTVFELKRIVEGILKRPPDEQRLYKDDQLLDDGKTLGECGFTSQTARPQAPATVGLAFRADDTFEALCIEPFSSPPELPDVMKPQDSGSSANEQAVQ
T1 sequence (Q15369 whole entry partner, the tested form may be a part): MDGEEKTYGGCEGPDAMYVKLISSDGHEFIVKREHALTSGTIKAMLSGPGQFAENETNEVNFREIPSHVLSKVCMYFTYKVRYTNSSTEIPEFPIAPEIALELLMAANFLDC
Procedure: The VHL NanoBRET™ Target Engagement Assay analyzes the apparent affinity of test compounds for VHL in cells by competitive displacement of a VHL NanoBRET™ tracer reversibly bound to a NanoLuc® VHL fusion protein stably expressed in the cells.
Test compounds were transferred to the assay plate (384 Well White Non-Binding Corning Assay Plates (Corning-3574)) using an Echo 555 Liquid Handler (Labcyte) in 2.5 nL increments and, as appropriate, intermediate stock concentrations of compounds, in order to prepare a titration series. 50 nL of control compound (10 mM; parental unlabeled VHL antagonist; see structure below) and 50 nL of DMSO (negative control) were dispensed into the appropriate control wells. DMSO was backfilled to a final volume of 50 nL as required. 50 nl per well of 1 mM VHL NanoBRET™ Tracer in DMSO (NanoBRET™ Tracer-PEG2-590 (see structure below)) was transferred into each well using an Echo 555 (ultimately yielding a final concentration of 1 uM). HEK 293 RT VHL-NanoLuc® stable cells were cultured in DMEM High Glucose with Pyruvate, 10% fetal bovine serum, 2 mg/mL of Geneticin Selective Antibiotic (50 mg/ml) and 2 mM HEPES (1 M). Cells were seeded in Opti-MEM (Life Technologies-11058-021), 1.7×10^5 cells/mL, 40 μl per well into the assay plate, centrifuged at 500 rpm for 30 seconds and incubated for 2 hours. Max Signal control wells consisted of DMSO only treated wells. Minimum Signal control wells contained of 10 uM parental unlabeled VHL antagonist (control compound—see structure below). 3× Complete Substrate plus Inhibitor Solution was prepared in Opti-MEM (consists of a 1:166 dilution of NanoBRET™ Nano-Glo® Substrate plus a 1:500 dilution of Extracellular NanoLuc® Inhibitor in Opti-MEM), and 20 ul was dispensed into each well of the 384-well plate and centrifuged at 1000 rpm for 1 minute, then incubated for 2 minutes at room temperature. Background Signal control wells were prepared without tracer for background correction steps.
Plates were read using a PerkinElmer Envision Reader (model 2104-0020) equipped with Luminescence option (Mirror: BRET2 Enh (PE Barcode 659), Emission Filter: Omega 610LP (Barcode 504), 2nd Emission Filter: Umbelliferone 460 (Barcode 207), Measurement height: 6.5 mm, Measurement time: 1 s). The raw BRET ratio values were calculated by dividing the acceptor emission value (610 nm) by the donor emission value (460 nm) for each sample. To correct for background, the BRET ratio in the absence of tracer (average of no-tracer control samples) was subtracted from the BRET ratio of each sample. Raw BRET units were converted to milliBRET units (mBU) by multiplying each raw BRET value by 1,000. The normalized NanoBRET™ signal was calculated relative to the Max Signal control wells (DMSO treated control wells) and the Minimum Signal control wells. Percentage inhibition was calculated relative to the Minimum Signal control and Maximum Signal control wells. IC50 values were derived by four parameter curve fitting using the Robust method.

VHL = target: T2, VHL (Homo sapiens, UniProt P40337); test: VHL nanoBRET (+Digitonin); assay type: cell-based
T2 construct: expressed in transfected cells
T2 sequence (P40337 whole entry): as the sequence (P40337 whole entry, the tested form may be a part) above
T2 sequence (Q15370 whole entry partner): as the sequence (Q15370 whole entry partner, the tested form may be a part) above
T2 sequence (Q15369 whole entry partner): as the sequence (Q15369 whole entry partner, the tested form may be a part) above

SMILES | IC50 [1] | Ratio cell permeability shift [1] | EC50 (VHL)
CC(C)NC(=O)[C@@H]1C[C@@H](O)CN1C(=O)[C@@H](n1cc(C2CC2)nn1)C(C)(C)C [Final product from Example S15, (2S,4R)-1-((S)-2-(4-cyclopropyl-1H-1,2,3-triazol-1-yl)-3,3-dimethylbutanoyl)-4-hydroxy-N-isopropylpyrrolidine-2-carboxamide] | 9090 nM | 1.52 | 5990 nM
CC(C)(C)[C@@H](C(=O)N1C[C@H](O)C[C@H]1C(=O)NCCF)n1cc(C2CC2)nn1 [Final product from Example S16, (2S,4R)-1-((S)-2-(4-cyclopropyl-1H-1,2,3-triazol-1-yl)-3,3-dimethylbutanoyl)-N-(2-fluoroethyl)-4-hydroxypyrrolidine-2-carboxamide] | 2430 nM | 0.68 | 3560 nM
CCNC(=O)[C@@H]1C[C@@H](O)CN1C(=O)[C@@H](n1cc(C2CC2)nn1)C(C)(C)C [Final product from Example S17, (2S,4R)-1-((S)-2-(4-cyclopropyl-1H-1,2,3-triazol-1-yl)-3,3-dimethylbutanoyl)-N-ethyl-4-hydroxypyrrolidine-2-carboxamide] | 4150 nM | 1.07 | 3890 nM
CC(C)(C)[C@@H](C(=O)N1C[C@H](O)C[C@H]1C(=O)NC1(C(F)(F)F)CC1)n1cc(C2CC2)nn1 [Final product from Example S18, (2S, 4R)-1-((S)-2-(4-cyclopropyl-1H-1,2,3-triazol-1-yl)-3,3-dimethylbutanoyl)-4-hydroxy-N-(1-(trifluoromethyl)cyclopropyl)pyrrolidine-2-carboxamide] | 4990 nM | 1 | 4990 nM
CNC(=O)[C@@H]1C[C@@H](O)CN1C(=O)[C@H](C(C)C)n1cc(-c2ccco2)nn1 [Final product from Example S19, (2S, 4R)-1-((S)-2-(4-(furan-2-yl)-1H-1,2,3-triazol-1-yl)-3-methylbutanoyl)-4-hydroxy-N-methylpyrrolidine-2-carboxamide] | 800 nM | 0.90 | 890 nM
CNC(=O)[C@@H]1C[C@@H](O)CN1C(=O)[C@H](C(C)C)n1cc(C2(C)CC2)nn1 [Final product from Example S20, (2S,4R)-4-hydroxy-N-methyl-1-((S)-3-methyl-2-(4-(1-methylcyclopropyl)-1H-1,2,3-triazol-1-yl)butanoyl)pyrrolidine-2-carboxamide] | 2120 nM | 1.71 | 1240 nM
CNC(=O)[C@@H]1C[C@@H](O)CN1C(=O)[C@H](C(C)C)n1cc(C2CCC2)nn1 [Final product from Example S21, (2S,4R)-1-((S)-2-(4-cyclobutyl-1H-1,2,3-triazol-1-yl)-3-methylbutanoyl)-4-hydroxy-N-methylpyrrolidine-2-carboxamide] | 2830 nM | 0.86 | 3290 nM

The remaining lines, values ahead:

IC50 [1] | Ratio cell permeability shift [1] | EC50 (VHL) | SMILES
3210 nM | 1.15 | 2780 nM | CNC(=O)[C@@H]1C[C@@H](O)CN1C(=O)[C@H](C(C)C)n1cc(C2CCCC2)nn1 [Final product from Example S22, (2S, 4R)-1-[(2S)-2-(4-cyclopentyltriazol-1-yl)-3-methyl-butanoyl]-4-hydroxy-N-methyl-pyrrolidine-2-carboxamide]
 | 0.96 | 4940 nM | CNC(=O)[C@@H]1C[C@@H](O)CN1C(=O)C(=C(C)C)n1cc(C2CC2)nn1 [Final product from Example S27, (2S, 4R)-1-[2-(4-cyclopropyltriazol-1-yl)-3-methyl-but-2-enoyl]-4-hydroxy-N-methyl-pyrrolidine-2-carboxamide]
590 nM | 0.75 | 790 nM | CNC(=O)[C@@H]1C[C@@H](O)CN1C(=O)[C@H](C(C)C)n1cc(-c2cccs2)nn1 [Final product from Example S28, (2S, 4R)-4-hydroxy-N-methyl-1-((S)-3-methyl-2-(4-(thiophen-2-yl)-1H-1,2,3-triazol-1-yl)butanoyl)pyrrolidine-2-carboxamide]
3200 nM | 1.51 | 2120 nM | CNC(=O)[C@@H]1C[C@@H](O)CN1C(=O)[C@H](C(C)C)n1cc(-c2cnco2)nn1 [Final product from Example S32, (2S, 4R)-4-hydroxy-N-methyl-1-[(2S)-3-methyl-2-(4-oxazol-5-yltriazol-1-yl)butanoyl]pyrrolidine-2-carboxamide]
1380 nM | 1.09 | 1270 nM | CNC(=O)[C@@H]1C[C@@H](O)CN1C(=O)[C@H](C(C)C)n1cc(-c2ccccc2)nn1 [Final product from Example S34, (2S,4R)-4-hydroxy-N-methyl-1-((S)-3-methyl-2-(4-phenyl-1H-1,2,3-triazol-1-yl)butanoyl)pyrrolidine-2-carboxamide]
1700 nM | 0.85 | 2010 nM | CNC(=O)[C@@H]1C[C@@H](O)CN1C(=O)[C@H](C(C)C)n1cc(-c2ccccn2)nn1 [Final product from Example S35, (2S,4R)-4-hydroxy-N-methyl-1-((S)-3-methyl-2-(4-(pyridin-2-yl)-1H-1,2,3-triazol-1-yl)butanoyl)pyrrolidine-2-carboxamide]
1220 nM | 1.21 | 1010 nM | CNC(=O)[C@@H]1C[C@@H](O)CN1C(=O)[C@H](C(C)C)n1cc(-c2cccnc2)nn1 [Final product from Example S36, (2S,4R)-4-hydroxy-N-methyl-1-((S)-3-methyl-2-(4-(pyridin-3-yl)-1H-1,2,3-triazol-1-yl)butanoyl)pyrrolidine-2-carboxamide]
1960 nM | 1.33 | 1470 nM | CNC(=O)[C@@H]1C[C@@H](O)CN1C(=O)[C@H](C(C)C)n1cc(-c2ccncc2)nn1 [Final product from Example S37, (2S,4R)-4-hydroxy-N-methyl-1-((S)-3-methyl-2-(4-(pyridin-4-yl)-1H-1,2,3-triazol-1-yl)butanoyl)pyrrolidine-2-carboxamide]
13800 nM | 3.40 | 4060 nM | CNC(=O)[C@@H]1C[C@@H](O)CN1C(=O)[C@H](C(C)C)n1cc(-c2ncccn2)nn1 [Final product from Example S38, (2S,4R)-4-hydroxy-N-methyl-1-((S)-3-methyl-2-(4-(pyrimidin-2-yl)-1H-1,2,3-triazol-1-yl)butanoyl)pyrrolidine-2-carboxamide]
1690 nM | 2.35 | 720 nM | CNC(=O)[C@@H]1C[C@@H](O)CN1C(=O)[C@H](C(C)C)n1cc(-c2cncnc2)nn1 [Final product from Example S39, (2S,4R)-4-hydroxy-N-methyl-1-((S)-3-methyl-2-(4-(pyrimidin-5-yl)-1H-1,2,3-triazol-1-yl)butanoyl)pyrrolidine-2-carboxamide]
570 nM | 1.24 | 460 nM | CNC(=O)[C@@H]1C[C@@H](O)CN1C(=O)[C@H](C(C)C)n1cc(-c2ccc(Cl)s2)nn1 [Final product from Example S40, (2S,4R)-1-((S)-2-(4-(5-chlorothiophen-2-yl)-1H-1,2,3-triazol-1-yl)-3-methylbutanoyl)-4-hydroxy-N-methylpyrrolidine-2-carboxamide]
